# Experimental data: US20240360178A1, “MACROCYCLIC IMMUNOMODULATORS” (Bristol-Myers Squibb Company, priority 2021, published 2024)
# Positions of bridges follow the written chain, without caps; N, C: chain ends. Non-standard residues stand in square brackets, D forms with d. Residues, ends and D or L forms follow the SMILES beside them. ξ: configuration not given here. *: point of attachment. Phe(4-CONH2) = NC(=O)c1ccc(C[C@H](N)C(=O)O)cc1; Phe(4-COOH) = N[C@@H](Cc1ccc(C(=O)O)cc1)C(=O)O; Bip = N[C@@H](Cc1ccc(-c2ccccc2)cc1)C(=O)O; Ala(cPent) = N[C@@H](CC1CCCC1)C(=O)O; NMeY = CN[C@@H](Cc1ccc(O)cc1)C(=O)O; Val(3-OH) = CC(C)(O)[C@H](N)C(=O)O; NMeF = CN[C@@H](Cc1ccccc1)C(=O)O; 4Pal = N[C@@H](Cc1ccncc1)C(=O)O; Cha = N[C@@H](CC1CCCCC1)C(=O)O; dPip = O=C(O)[C@H]1CCCCN1; Carboxymethyl = O=C(O)C*; NMeA = CN[C@@H](C)C(=O)O; Orn = NCCC[C@H](N)C(=O)O; Dab = NCC[C@H](N)C(=O)O; Nva = CCC[C@H](N)C(=O)O; ξV = CC(C)C(N)C(=O)O; Sar = CNCC(=O)O
# Target: T1, human PD-1 (Jurkat-PD-1 cells) / PE-labeled human PD-L1-Ig (Homo sapiens, UniProt Q15116)
# T1 construct: expressed in transfected cells; host or cells: Jurkat cell line over-expressing human PD-1
# T1 sequence (Q15116 25-288): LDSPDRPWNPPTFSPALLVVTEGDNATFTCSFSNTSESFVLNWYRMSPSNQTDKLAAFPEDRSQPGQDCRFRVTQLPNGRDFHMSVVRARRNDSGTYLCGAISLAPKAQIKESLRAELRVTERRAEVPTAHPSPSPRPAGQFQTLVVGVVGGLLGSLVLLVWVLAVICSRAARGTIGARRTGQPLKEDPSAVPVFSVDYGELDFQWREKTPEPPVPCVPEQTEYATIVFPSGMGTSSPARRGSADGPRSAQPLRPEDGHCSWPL
# Test: Jurkat-PD-1 Cell Binding High-Content Screening Assay (CBA); Jurkat hPD1-PDL1 assay
# Settings: Jurkat cell line over-expressing human PD-1; PE-labeled PD-L1-Ig 20 nM final; compound incubated 2 hours at 37° C.; read-out: Jurkat HPD1-PDL1 IC50
# Procedure, shortened: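 Jurkat cells overexpressing human PD-1 (8×10^3 per well, DMEM with 10% FCS) were preincubated with compound for 2 hours at 37° C. PE-labeled human PD-L1-Ig was then added at 20 nM final. Binding was quantified by high-content imaging.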
row,IC50,Compound
1,140 nM,CCC[C@@H]1NC(=O)[C@H](Cc2c[nH]c3ccccc23)NC(=O)[C@H](CC(=O)O)NC(=O)[C@H](Cc2ccc(O)cc2)NC(=O)[C@H](Cc2ccccc2)NC(=O)CSC[C@@H](C(=O)NCC(N)=O)NC(=O)[C@H](CO)NC(=O)[C@H](C(C)C)NC(=O)[C@H](CC(C)C)NC(=O)[C@H](CCCNC(=N)N)NC(=O)[C@H](Cc2ccccc2)N(C)C(=O)[C@H](C)N(C)C(=O)[C@H](CCCNC(=N)N)NC(=O)[C@H](Cc2ccc(-c3ccccc3)cc2)NC1=O [Example 1335] ({CH2CO}-FYDW[Nva][Bip]R[NMeA][NMeF]RLVSCG-NH2; thioether N-14)
2,210 nM,CC(C)C[C@@H]1NC(=O)[C@H](CCCN)NC(=O)[C@H](Cc2ccccc2)N(C)C(=O)[C@H](C)N(C)C(=O)[C@H](CCCNC(=N)N)NC(=O)[C@H](Cc2ccc(-c3ccccc3)cc2)NC(=O)[C@H](C(C)C)NC(=O)[C@H](Cc2c[nH]c3ccccc23)NC(=O)[C@H](CC(=O)O)NC(=O)[C@H](Cc2ccc(O)cc2)NC(=O)[C@H](Cc2ccccc2)NC(=O)CSC[C@@H](C(=O)N[C@@H](CO)C(N)=O)NC(=O)[C@H]([C@@H](C)O)NC(=O)[C@H](C(C)C)NC1=O [Example 1357] ({CH2CO}-FYDWV[Bip]R[NMeA][NMeF][Orn]LVTCS-NH2; thioether N-14)
3,110 nM,CC(C)C[C@@H]1NC(=O)[C@H](CCCNC(=N)N)NC(=O)[C@H](Cc2ccccc2)N(C)C(=O)[C@H](C)N(C)C(=O)[C@H](CCC(=O)O)NC(=O)[C@H](Cc2ccc(-c3ccccc3)cc2)NC(=O)[C@H](C(C)C)NC(=O)[C@H](Cc2c[nH]c3ccccc23)NC(=O)[C@H](CC(=O)O)NC(=O)[C@H](Cc2ccc(O)cc2)NC(=O)[C@H](CC(N)=O)NC(=O)CSC[C@@H](C(=O)N[C@@H](C)C(N)=O)NC(=O)[C@H](CCCN)NC(=O)[C@H](C(C)C)NC1=O [Example 1378] ({CH2CO}-NYDWV[Bip]E[NMeA][NMeF]RLV[Orn]CA-NH2; thioether N-14)
4,140 nM,CC(C)C1NC(=O)[C@H](Cc2c[nH]c3ccccc23)NC(=O)[C@H](CC(=O)O)NC(=O)[C@H](Cc2ccncc2)NC(=O)[C@H](Cc2ccc(OCC(=O)O)cc2)NC(=O)CSC[C@@H](C(=O)N[C@@H](C)C(N)=O)NC(=O)[C@H]([C@@H](C)O)NC(=O)[C@H](C(C)C)NC(=O)[C@H](CC2CCCCC2)NC(=O)[C@H](CCN)NC(=O)[C@H](Cc2ccc(O)cc2)N(C)C(=O)[C@H](CCCN)NC(=O)[C@H](CCC(=O)O)NC(=O)[C@H](Cc2ccc(-c3ccccc3)cc2)NC1=O (stereo partly shown) [Example 1452] ({CH2CO}-Y(Carboxymethyl)[4Pal]DW[ξV][Bip]E[Orn][NMeY][Dab][Cha]VTCA-NH2; thioether N-14)
5,70 nM,CC(C)C[C@@H]1NC(=O)[C@H](Cc2c[nH]c3ccccc23)NC(=O)[C@H](CC(=O)O)NC(=O)[C@H](Cc2ccc(O)cc2)NC(=O)[C@H](CC(N)=O)NC(=O)CSC[C@@H](C(=O)NCC(N)=O)NC(=O)[C@H](CO)NC(=O)[C@H](C(C)C)NC(=O)[C@H](CC(C)C)NC(=O)[C@H](CCN)NC(=O)[C@H]2CCCN2C(=O)[C@H](CCCN)NC(=O)[C@H](C(C)C)NC(=O)[C@H](Cc2ccc(-c3ccccc3)cc2)NC1=O [Example 1403] ({CH2CO}-NYDWL[Bip]V[Orn][dP][Dab]LVSCG-NH2; thioether N-14)
6,220 nM,CC(C)C[C@@H]1NC(=O)[C@H](Cc2c[nH]c3ccccc23)NC(=O)[C@H](CC(=O)O)NC(=O)[C@H](Cc2ccc(O)cc2)NC(=O)[C@H](CC(N)=O)NC(=O)CSC[C@@H](C(=O)N[C@@H](C)C(N)=O)NC(=O)[C@H]([C@@H](C)O)NC(=O)[C@H](C(C)C)NC(=O)[C@H](CC(C)C)NC(=O)[C@H](CC(N)=O)NC(=O)[C@H]2CCCN2C(=O)[C@H](CCCN)NC(=O)[C@H](C(C)C)NC(=O)[C@H](Cc2ccc(-c3ccccc3)cc2)NC1=O [Example 1426] ({CH2CO}-NYDWL[Bip]V[Orn][dP]NLVTCA-NH2; thioether N-14)

# The remaining lines, values behind:
row,Compound,IC50
1,CC(C)C[C@@H]1NC(=O)[C@H](Cc2c[nH]c3ccccc23)NC(=O)[C@H](CC(=O)O)NC(=O)[C@H](Cc2ccc(OCC(=O)O)cc2)NC(=O)[C@H]([C@@H](C)O)NC(=O)CSC[C@@H](C(=O)N[C@@H](CCN)C(N)=O)NC(=O)[C@H](CO)NC(=O)[C@H](C(C)(C)O)NC(=O)[C@H](CC2CCCCC2)NC(=O)[C@H](CCN)NC(=O)[C@H]2CCCCN2C(=O)[C@H]2CCCN2C(=O)[C@H](C(C)C)NC(=O)[C@H](Cc2ccc(-c3ccccc3)cc2)NC1=O [Example 1188] ({CH2CO}-TY(Carboxymethyl)DWL[Bip]V[dP][dPip][Dab][Cha][Val(3-OH)]SC[Dab]-NH2; thioether N-14),50 nM
2,CC(C)C[C@@H]1NC(=O)[C@H](Cc2c[nH]c3ccccc23)NC(=O)[C@H](CC(=O)O)NC(=O)[C@H](Cc2ccc(O)cc2)NC(=O)[C@H](Cc2ccc(C(N)=O)cc2)NC(=O)CSC[C@@H](C(=O)NCC(N)=O)NC(=O)[C@H](CO)NC(=O)[C@H](C(C)C)NC(=O)[C@H](CC(C)C)NC(=O)[C@H](CC(N)=O)NC(=O)CN(C)C(=O)[C@H](C)N(C)C(=O)[C@H](C(C)C)NC(=O)[C@H](Cc2ccc(-c3ccccc3)cc2)NC1=O [Example 1174] ({CH2CO}-[Phe(4-CONH2)]YDWL[Bip]V[NMeA][Sar]NLVSCG-NH2; thioether N-14),970 nM
3,CC(C)C[C@@H]1NC(=O)[C@H](Cc2c[nH]c3ccccc23)NC(=O)[C@H](CC(=O)O)NC(=O)[C@H](Cc2ccc(O)cc2)NC(=O)[C@H](Cc2ccccc2)NC(=O)CSC[C@@H](C(=O)NCC(N)=O)NC(=O)[C@H](C)NC(=O)[C@H](C(C)C)NC(=O)[C@H](CC(C)C)NC(=O)[C@H](CC(N)=O)NC(=O)CN(C)C(=O)[C@H](C)N(C)C(=O)[C@H](C(C)C)NC(=O)[C@H](Cc2ccc(-c3ccccc3)cc2)NC1=O [Example 1110] ({CH2CO}-FYDWL[Bip]V[NMeA][Sar]NLVACG-NH2; thioether N-14),350 nM
4,CC(C)C[C@@H]1NC(=O)[C@H](Cc2c[nH]c3ccccc23)NC(=O)[C@H](CC(=O)O)NC(=O)[C@H](Cc2ccc(O)cc2)NC(=O)[C@H](CC(N)=O)NC(=O)CSC[C@@H](C(=O)N[C@@H](C)C(N)=O)NC(=O)[C@H](CO)NC(=O)[C@H](C(C)C)NC(=O)[C@H](CC(C)C)NC(=O)[C@H](CC(N)=O)NC(=O)[C@H]2CCCN2C(=O)[C@H](C)N(C)C(=O)[C@H](C(C)C)NC(=O)[C@H](Cc2ccc(-c3ccccc3)cc2)NC1=O [Example 1031] ({CH2CO}-NYDWL[Bip]V[NMeA][dP]NLVSCA-NH2; thioether N-14),60 nM
5,CC(C)C[C@@H]1NC(=O)[C@H](CCCNC(=N)N)NC(=O)[C@H](Cc2ccccc2)N(C)C(=O)[C@H](C)N(C)C(=O)[C@H](CCCN)NC(=O)[C@H](Cc2ccc(-c3ccccc3)cc2)NC(=O)[C@H](C(C)C)NC(=O)[C@H](Cc2c[nH]c3ccccc23)NC(=O)[C@H](CC(=O)O)NC(=O)[C@H](Cc2ccc(O)cc2)NC(=O)[C@H](Cc2ccccc2)NC(=O)CSC[C@@H](C(=O)NCC(N)=O)NC(=O)[C@H](CO)NC(=O)[C@H](C(C)C)NC1=O [Example 1243] ({CH2CO}-FYDWV[Bip][Orn][NMeA][NMeF]RLVSCG-NH2; thioether N-14),60 nM
6,CC(C)C[C@@H]1NC(=O)[C@H](CCCNC(=N)N)NC(=O)[C@H](Cc2ccccc2)N(C)C(=O)[C@H](C)N(C)C(=O)[C@H](CCCNC(=N)N)NC(=O)[C@H](Cc2ccc(-c3ccccc3)cc2)NC(=O)[C@H](C(C)C)NC(=O)[C@H](Cc2c[nH]c3ccccc23)NC(=O)[C@H](CC(=O)O)NC(=O)[C@H](Cc2ccc(O)cc2)NC(=O)[C@H](CCC(N)=O)NC(=O)CSC[C@@H](C(=O)N[C@@H](C)C(N)=O)NC(=O)[C@H](CO)NC(=O)[C@H](C(C)C)NC1=O [Example 1296] ({CH2CO}-QYDWV[Bip]R[NMeA][NMeF]RLVSCA-NH2; thioether N-14),140 nM
7,CC(C)C[C@@H]1NC(=O)[C@H](CCCNC(=N)N)NC(=O)[C@H](Cc2ccccc2)N(C)C(=O)[C@H](C)N(C)C(=O)[C@H](CCCNC(=N)N)NC(=O)[C@H](Cc2ccc(-c3ccccc3)cc2)NC(=O)[C@H](C(C)C)NC(=O)[C@H](Cc2c[nH]c3ccccc23)NC(=O)[C@H](CC(=O)O)NC(=O)[C@H](Cc2ccc(C(=O)O)cc2)NC(=O)[C@H](Cc2cnc[nH]2)NC(=O)CSC[C@@H](C(=O)NCC(N)=O)NC(=O)[C@H](CO)NC(=O)[C@H](C(C)C)NC1=O [Example 1291] ({CH2CO}-H[Phe(4-COOH)]DWV[Bip]R[NMeA][NMeF]RLVSCG-NH2; thioether N-14),90 nM
8,CC(C)C[C@@H]1NC(=O)[C@H](CCCNC(=N)N)NC(=O)[C@H](Cc2ccccc2)N(C)C(=O)[C@H](C)N(C)C(=O)[C@H](CCCNC(=N)N)NC(=O)[C@H](Cc2ccc(-c3ccccc3)cc2)NC(=O)[C@H](C(C)C)NC(=O)[C@H](Cc2c[nH]c3ccccc23)NC(=O)[C@H](CC(=O)O)NC(=O)[C@H](Cc2ccc(O)cc2)NC(=O)[C@H](Cc2ccccc2)NC(=O)CSC[C@@H](C(=O)N[C@@H](CCC(=O)O)C(N)=O)NC(=O)[C@H](CO)NC(=O)[C@H](C(C)C)NC1=O [Example 1105] ({CH2CO}-FYDWV[Bip]R[NMeA][NMeF]RLVSCE-NH2; thioether N-14),330 nM
9,CC(C)C[C@@H]1NC(=O)[C@H](Cc2c[nH]c3ccccc23)NC(=O)[C@H](CC(=O)O)NC(=O)[C@H](Cc2ccc(O)cc2)NC(=O)[C@H](Cc2ccccc2)NC(=O)CSC[C@@H](C(=O)N[C@@H](C)C(N)=O)NC(=O)[C@H](CO)NC(=O)[C@H](C(C)C)NC(=O)[C@H](CC2CCCC2)NC(=O)[C@H](CC(N)=O)NC(=O)CN(C)C(=O)[C@H](C)N(C)C(=O)[C@H](C(C)C)NC(=O)[C@H](Cc2ccc(-c3ccccc3)cc2)NC1=O [Example 1102] ({CH2CO}-FYDWL[Bip]V[NMeA][Sar]N[Ala(cPent)]VSCA-NH2; thioether N-14),310 nM
10,CC(C)C[C@@H]1NC(=O)[C@H](Cc2c[nH]c3ccccc23)NC(=O)[C@H](CC(=O)O)NC(=O)[C@H](Cc2ccc(O)cc2)NC(=O)[C@H](Cc2ccccc2)NC(=O)CSC[C@@H](C(=O)NCC(N)=O)NC(=O)[C@H](CO)NC(=O)[C@H](C(C)C)NC(=O)[C@H](CC(C)C)NC(=O)[C@H](CCC(N)=O)NC(=O)CN(C)C(=O)[C@H](C)N(C)C(=O)[C@H](C(C)C)NC(=O)[C@H](Cc2ccc(-c3ccccc3)cc2)NC1=O [Example 1072] ({CH2CO}-FYDWL[Bip]V[NMeA][Sar]QLVSCG-NH2; thioether N-14),190 nM
